Results reported in US4192871A, “Chemical compounds” (Glaxo Laboratories Limited, priority 1976, dated 1980).

How the values were obtained:
[1] = dissolution of the 11β-aminoester salts in aqueous acid (Table 5 and Examples 101, 225-229); type: physicochemical
Summary of the method: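 11β-Aminoester free base combined with 1 molar part of acid (citric acid as monohydrate) in water, with extra acid or prior ethanol co-evaporation in some methods. Solution made up to set weight, undissolved base collected and weighed to calculate dissolved amount. Solution pH measured.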

pH of the salt solutions = type: physicochemical; conditions: aqueous solution of the salt, Table 5
Summary of the method: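 Aminoester free base mixed with 1 molar part acid in water, stirred or shaken, with extra acid or ethanol evaporation in some methods, then made up with water to set weight. Undissolved base collected and weighed to calculate dissolved base; solution membrane-filtered and pH measured.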

[2] = method C: ethanol evaporated, residue in water, undissolved material weighed, WT. of solution Ex. 118: 10, 120: 10.4, 148: 9.54, 152: 5.6, 154: 9.1, 155: 8.77, 156: 9.06, 157: 9.5, 158: 9.38, 159: 9.17, 179: 9.65, 180: 11.7, 182: 4.9, 202: 12.05, 213: 12, 214: 11.5, 215: 11.1, 216: 11.6, 217: 12.1 g
[3] = method A: clear solution, 1 molar part acid, made up with water to WT. of solution 10 g, except Ex. 121 and 150: 12, 123: 12.3, 124: 7.5, 129: 10.3, 135 and 139: 8.95, 164: 10.35, 170: 10.4, 181: 10.04, 187: 9.5, 210: 10.2, 221: 15 g
[4] = method B: further acid added, undissolved material weighed, WT. of solution 10 g, except Ex. 130 and 141: 9.2, 142: 9.23, 143, 144, 189 and 199: 9.8, 149: 10.6, 153: 7.9, 162 and 188: 9.5, 163: 68, 166: 10.4, 168: 10.7, 169: 10.9, 183: 8.05, 184 and 201: 9.83, 185: 7.1, 186: 9.3, 192: 10.07, 193: 6.4, 195: 6.8, 196: 7, 197: 7.2, 200: 10.1, 206: 15 g
[5] = method D: 1 molar part acid, undissolved material weighed, WT. of solution 10 g, except Ex. 136: 8.95, 140: 9.52, 165 and 167: 10.1, 190 and 198: 9.8, 191: 8.9, 194: 6.6, 204: 10.09, 219: 10.6 g
[6] = method E: as C with further acid, WT. of solution Ex. 160: 6.12, 161: 7.8, 203: 12.7, 212: 12.125, 220: 10 g

SMILES	pH (pH of the salt solutions)	Dissolved aminoester [1, 3]	other results
CCCN(CCC)CC(=O)O[C@H]1C[C@]2(C)[C@@H](C(C)=O)CC[C@H]2[C@@H]2CC[C@H]3C[C@H](O)CC[C@]3(C)[C@H]21 [Example 214]	3.52		Dissolved aminoester [1, 2]: 115 mg
CO[C@H]1C[C@@]2(C)[C@@H](CC[C@@H]3[C@@H]2[C@@H](OC(=O)CN2CCCCC2)C[C@]2(C)[C@@H](C(C)=O)CC[C@@H]32)C[C@@H]1O [Example 123]	3.6	122 mg	
CCCC(C)N(C)CC(=O)O[C@H]1C[C@]2(C)[C@@H](C(C)=O)CC[C@H]2[C@@H]2CC[C@H]3C[C@H](O)CC[C@]3(C)[C@H]21 (stereo partly shown) [Example 187]	3.63	95 mg	
CCCCCNCC(=O)O[C@H]1C[C@]2(C)[C@@H](C(C)=O)CC[C@H]2[C@@H]2CC[C@H]3C[C@H](O)CC[C@]3(C)[C@H]21 [Example 130]	3.12		Dissolved aminoester [1, 4]: 80 mg
CC(=O)[C@H]1CC[C@H]2[C@@H]3CC[C@H]4C[C@H](O)CC[C@]4(C)[C@H]3[C@@H](OC(=O)CN(C)[C@H](C)CC(C)C)C[C@]12C [Example 198]	3.62		Dissolved aminoester [1, 5]: 90 mg
CCCN(CCC)CC(=O)O[C@H]1C[C@]2(C)[C@@H](C(C)=O)CC[C@H]2[C@@H]2CC[C@H]3C[C@](C)(O)CC[C@]3(C)[C@H]21 [Example 132]	3.4	100 mg	
CC(=O)[C@H]1CC[C@H]2[C@@H]3CC[C@H]4C[C@H](O)CC[C@]4(C)[C@H]3[C@@H](OC(=O)CNCC(C)(C)C)C[C@]12C [Example 142]	3.12		Dissolved aminoester [1, 4]: 92.3 mg
CCN(CC(=O)O[C@H]1C[C@]2(C)[C@@H](C(C)=O)CC[C@H]2[C@@H]2CC[C@H]3C[C@H](O)CC[C@]3(C)[C@H]21)C(C)C [Example 194]	3.56		Dissolved aminoester [1, 5]: 57 mg
CCOC1CC2(C)C(CCC3C4CCC(C(C)=O)C4(C)CC(OC(=O)CN4CCC(C)CC4)C32)CC1O (stereo not shown) [Example 164]	3.72	103.5 mg	
CC(=O)[C@H]1CC[C@H]2[C@@H]3CC[C@H]4C[C@H](O)CC[C@]4(C)[C@H]3[C@@H](OC(=O)CN(C(C)C)C(C)C)C[C@]12C [Example 153]	3.02		Dissolved aminoester [1, 4]: 79 mg
CCCN(CCC)CC(=O)O[C@H]1C[C@]2(C)[C@@H](C(C)=O)CC[C@H]2[C@@H]2CC[C@H]3C[C@H](O)[C@@H](C)C[C@]3(C)[C@H]21 [Example 161]	2.8		Dissolved aminoester [1, 6]: 78 mg
CC(=O)[C@H]1CC[C@H]2[C@@H]3CC[C@H]4C[C@H](O)CC[C@]4(C)[C@H]3[C@@H](OC(=O)CNCC(C)C)C[C@]12C [Example 135]	3.27	80.5 mg	
CC(=O)[C@H]1CC[C@H]2[C@@H]3CC[C@H]4C[C@H](O)CC[C@]4(C)[C@H]3[C@@H](OC(=O)CCN(C)C(C)CC(C)C)C[C@]12C (stereo partly shown) [Example 200]	3.2		Dissolved aminoester [1, 4]: 83 mg
CC(=O)[C@H]1CC[C@H]2[C@@H]3CC[C@H]4C[C@H](O)CC[C@]4(C)[C@H]3[C@@H](OC(=O)CCCN3CCC(C)CC3)C[C@]12C [Example 181]	3.72	101 mg	
CC(=O)[C@H]1CC[C@H]2[C@@H]3CC[C@H]4C[C@H](O)CC[C@]4(C)[C@H]3[C@@H](OC(=O)CN3CC4CCC(CC4)C3)C[C@]12C [Example 160]	2.6		Dissolved aminoester [1, 6]: 80.6 mg
CC(=O)[C@H]1CC[C@H]2[C@@H]3CC[C@H]4C[C@](C)(O)CC[C@]4(C)[C@H]3[C@@H](OC(=O)CN3CCCCC3)C[C@]12C [Example 133]	3.7	100 mg	
CC(=O)[C@H]1CC[C@H]2[C@@H]3CC[C@H]4C[C@H](O)CC[C@]4(C)[C@H]3[C@@H](OC(=O)CNC3CCCC3)C[C@]12C [Example 137]	3.62	100 mg	
CCCCN(CC)CC(=O)O[C@H]1C[C@]2(C)[C@@H](C(C)=O)CC[C@H]2[C@@H]2CC[C@H]3C[C@H](O)CC[C@]3(C)[C@H]21 [Example 221]	3.52	150 mg	
CC(=O)[C@H]1CC[C@H]2[C@@H]3CC[C@H]4C[C@H](O)CC[C@]4(C)[C@H]3[C@@H](OC(=O)CN(C)C)C[C@]12C [Example 151]	3.6	100 mg	

SMILES	pH (pH of the salt solutions)	Dissolved aminoester [1, 3]	other results
CCN(CC(=O)O[C@H]1C[C@]2(C)[C@@H](C(C)=O)CC[C@H]2[C@@H]2CC[C@H]3C[C@H](O)CC[C@]3(C)[C@H]21)C(C)CC(C)C (stereo partly shown) [Example 197]	2.99		Dissolved aminoester [1, 4]: 63 mg
CCN(CC)CC(=O)O[C@H]1C[C@]2(C)[C@@H](C(C)=O)CC[C@H]2[C@@H]2CC[C@H]3C[C@H](O)C=C[C@]3(C)[C@H]21 [Example 211]	3.2		Dissolved aminoester [1, 5]: 94 mg
CC(=O)[C@H]1CC[C@H]2[C@@H]3CC[C@H]4C[C@H](O)CC[C@]4(C)[C@H]3[C@@H](OC(=O)C(C)N3CCCCC3)C[C@]12C (stereo partly shown) [Example 180]	3.60		Dissolved aminoester [1, 2]: 117 mg
CC(=O)C1C(C)CC2C3CCC4CC(O)CCC4(C)C3C(OC(=O)CN3CCC(C)CC3)CC21C (stereo not shown) [Example 178]	3.6	100 mg	
CC(=O)[C@H]1CC[C@H]2[C@@H]3CC[C@H]4C[C@H](O)CC[C@]4(C)[C@H]3[C@@H](OC(=O)CN(C)C3CC3)C[C@]12C [Example 193]	2.46		Dissolved aminoester [1, 4]: 23 mg
CCN(C)CC(=O)O[C@H]1C[C@]2(C)[C@@H](C(C)=O)CC[C@H]2[C@@H]2CC[C@H]3C[C@H](O)CC[C@]3(C)[C@H]21 [Example 116]	3.63	100 mg	
CCCN(CCC)CC(=O)O[C@H]1C[C@]2(C)[C@@H](C#N)CC[C@H]2[C@@H]2CC[C@H]3C[C@H](O)CC[C@]3(C)[C@H]21 [Example 206]	2.7		Dissolved aminoester [1, 4]: 84 mg
CCCN(CCC)CC(=O)O[C@H]1C[C@]2(C)[C@@H](C(=O)CO)CC[C@H]2[C@@H]2CC[C@H]3C[C@H](O)CC[C@]3(C)[C@H]21 [Example 210]	3.7	100 mg	
CCCN(CCC)CC(=O)O[C@H]1C[C@]2(C)[C@@H](C(C)=O)CC[C@H]2[C@@H]2CC[C@H]3C[C@H](O)CC[C@]3(C)[C@H]21 [Example 154]	3.5		Dissolved aminoester [1, 2]: 91 mg
CC(=O)[C@H]1CC[C@H]2[C@@H]3CC[C@H]4C[C@H](O)CC[C@]4(C)[C@H]3[C@@H](OC(=O)CN3CCC(C)CC3)C[C@]12C [Example 158]	3.60		Dissolved aminoester [1, 2]: 93.8 mg
CC(=O)[C@H]1CC[C@H]2[C@@H]3CC[C@H]4C[C@H](O)CC[C@]4(C)[C@H]3[C@@H](OC(=O)CNC(C(C)C)C(C)C)C[C@]12C [Example 144]	2.79		Dissolved aminoester [1, 4]: 61 mg
CC(=O)[C@H]1CC[C@H]2[C@@H]3CC[C@H]4C[C@H](O)CC[C@]4(C)[C@H]3[C@@H](OC(=O)CN(C)C3CCCCC3)C[C@]12C [Example 127]	3.62	100 mg	
CCN(CC)CC(=O)O[C@H]1C[C@]2(C)[C@@H](C(C)=O)CC[C@H]2[C@@H]2CC[C@H]3C[C@H](O)[C@@H](SC#N)C[C@]3(C)[C@H]21 [Example 204]	3.5		Dissolved aminoester [1, 5]: 88.7 mg
CC(=O)[C@H]1CC[C@H]2[C@@H]3CC[C@H]4C[C@H](O)CC[C@]4(C)[C@H]3[C@@H](OC(=O)CN3CCCC(C)C3)C[C@]12C (stereo partly shown) [Example 157]	3.59		Dissolved aminoester [1, 2]: 95 mg
CCCN(CCC)CC(=O)O[C@H]1C[C@]2(C)[C@@H](C(C)=O)CC[C@H]2[C@@H]2CC[C@H]3C[C@H](O)CC[C@]3(C)[C@H]21 [Example 216]	3.58		Dissolved aminoester [1, 2]: 116 mg
CCC(C)N(CC(=O)O[C@H]1C[C@]2(C)[C@@H](C(C)=O)CC[C@H]2[C@@H]2CC[C@H]3C[C@H](O)CC[C@]3(C)[C@H]21)C(C)CC (stereo partly shown) [Example 147]	2.03		Dissolved aminoester [1, 4]: 85 mg
CCCN(CCC)CC(=O)O[C@H]1C[C@]2(C)[C@@H](C(C)=O)CC[C@H]2[C@@H]2CC[C@H]3C[C@H](O)CC[C@]3(C)[C@H]21 [Example 215]	3.63		Dissolved aminoester [1, 2]: 111 mg
CCN(CC)CC(=O)O[C@H]1C[C@]2(C)[C@@H](C(C)=O)CC[C@H]2[C@@H]2CC[C@H]3C[C@H](O)[C@@H](OC)C[C@]3(C)[C@H]21 [Example 124]	3.65	75 mg	
CC(=O)C1CCC2C3CCC4CC(O)CCC4(C)C3C(OC(=O)CNC(C)CC(C)C)CC12C (stereo not shown) [Example 163]	3.08		Dissolved aminoester [1, 4]: 68 mg
